The subject of experiment [1] is Agrobacterium tumefaciens LBA288. The experiment can be described thus: As(III) (sodium arsenite) growth inhibition / MIC. In kind it is cell-based. How it is done:
(§1) FIG. 8. […] In order to compare the MICs for As(III), cultures were carried out in LB medium, with various concentrations of sodium arsenite (up to 20 mM). After 48 h of cultivation at 30° C., optical density of the cultures (OD600nm measurements of absorbance at 600 nm) was monitored.
(§2) In all the conjugations, transconjugants harbouring the plasmid pARS1 were obtained. To confirm that the newly constructed strains, harbouring the plasmid pARS1, have an increased resistance to arsenic, analysis of MIC—minimal concentration of As(III), inhibiting the growth of the following strains: Agrobacterium tumefaciens ARS3 (derivative of A. tumefaciens LBA288 harbouring the plasmid pARS1), Brevundimonas sp. ARS4 (derivative of Brevundimonas sp. sp. OS24R harbouring the plasmid pARS1), P. aminophilus ARS5 (derivative of P. aminophilus JCM7686 harbouring the plasmid pARS1) was carried out. Wild-type strains were used as the control. Growth experiment and MIC analysis for As(III) was carried out in LB medium, with various concentrations of sodium arsenite (up to 20 mM). After 48 h of cultivation at 30° C., optical density of cultures at OD600nm was monitored. […] MIC for As(III) for A. tumefaciens LBA288 strain was 1 mM, while for its derivative, comprising the plasmid pARS1, 20 mM; for P. aminophilus JCM7686R strain 5 mM, while for its derivative, containing the plasmid pARS1, 20 mM. In turn Brevundimonas sp. OS24R could tolerate the maximum of 10 mM of As(III), and its derivative harbouring the plasmid pARS1 was resistant to 20 mM of As(III). The conducted analyses allowed to confirm that the derivative of the plasmid pSinA, comprising the ars module (sequence from 43229 to 50772) can be used for constructing strains with increased resistance to arsenic.

In experiment [2] the test system is Brevundimonas sp. OS24R. The experiment can be described thus: As(III) (sodium arsenite) growth inhibition / MIC. In kind it is cell-based. How it is done:
as §1, §2

Experiment [3] deals with Paracoccus aminophilus JCM7686. As to the kind of experiment: As(III) (sodium arsenite) growth inhibition / MIC. Format: cell-based. How it is done:
as §1, §2

In experiment [4] the test system is Paracoccus alcaliphilus JCM7364R. As to the kind of experiment: Sodium arsenite growth inhibition. Particulars: P. alcaliphilus JCM7364R. In kind it is cell-based.
Experiment [5] has as its system Sinorhizobium sp. M14. The experiment can be described thus: Resistance to As(III). In kind it is cell-based.
Experiment [6] has as its system A. tumefaciens D10. The experiment can be described thus: Resistance to As(III). Format: cell-based, Agrobacterium tumefaciens. The following applies: A. tumefaciens D10 with pSinA.
Experiment [7] relates to Paracoccus aminovorans JCM7685. As to the kind of experiment: Sodium arsenite growth inhibition. Format: cell-based. Particulars: P. aminovorans JCM7685.
In experiment [8] the test system is Stenotrophomonas sp. LM24R. As to the kind of experiment: Sodium arsenite growth inhibition. Format: cell-based.
Experiment [9] deals with Agrobacterium tumefaciens ARS3 (derivative of A. tumefaciens LBA288 harbouring the plasmid pARS1). The experiment can be described thus: MIC for As(III). Format: cell-based. The following applies: derivative with pARS1, LB medium, 48 h, 30° C. How it is done:
as §1, §2

Experiment [10] concerns Brevundimonas sp. ARS4 (derivative of Brevundimonas sp. OS24R harbouring the plasmid pARS1). The experiment can be described thus: MIC for As(III). In kind it is cell-based. The following applies: derivative with pARS1; LB medium, 48 h, 30° C. How it is done:
as §1, §2

Experiment [11] relates to P. aminophilus ARS5 (derivative of P. aminophilus JCM7686 harbouring the plasmid pARS1). As to the kind of experiment: MIC for As(III). Format: cell-based. The following applies: Paracoccus aminophilus, derivative with pARS1, LB medium, 48 h, 30° C. The method, then:
as §1, §2

The test system of experiment [12] is Pseudomonas sp. OS29R. As to the kind of experiment: Resistance to As(III). The following applies: in words. Format: cell-based.

Where only a bound is given, the exact number is not on record here.

On to `O=[As]O` [sodium arsenite], for which the “concentration of sodium arsenite that inhibits growth” value in experiment [1] (A. tumefaciens LBA288) was found to be 1 mM; in [2] (Brevundimonas sp. OS24R) it was 10 mM; in [3] (P. aminophilus JCM7686), 5 mM; in [4], 1 mM; in [7], 1 mM; in experiment [8], 1 mM. In addition, the MIC came out at 1 mM in experiment [1] (Agrobacterium tumefaciens, LBA288, LB medium, 48 h, 30° C., OD600nm); 5 mM in experiment [3] (Paracoccus aminophilus, JCM7686, 48 h, read-out: MIC for As(III)); 20 mM in [9]; 20 mM in [11]. Also, the “resistance to As (III)” value in experiment [2] (Brevundimonas sp. OS24R, in words) is reported as “resistant”; in experiment [12], “resistant”. Moreover, the “maximum of As(III) tolerated” value in experiment [2] (LB medium, 48 h, 30° C., OD600nm) is listed as ≤ 10 mM. In addition, the “resistant to As (III) (up to)” value in experiment [5] was “up to 20 mM”; in experiment [6] it was “up to 15 mM”. The “As(III) concentration the strain is resistant to” value in [10] stood at 20 mM.

For orientation: MIC means the lowest concentration that inhibits growth of the organism.
